This is an account of results in publication PMC9490829, “Elucidation of Structure–Activity Relationships in Indolobenzazepine-Derived Ligands and Their Copper(II) Complexes: the Role of Key Structural Components and Insight into the Mechanism of Action” (Inorganic Chemistry, 2022).

Like-named read-outs stand apart in the source and are kept apart here.

The nature of data set [1]: Solution stability (UV-vis, ESI-MS, 1H NMR). The conditions noted are these: aqueous solution containing 1% DMSO, 72 h. The data set is classed as physicochemical. As to the method:
First, UV–vis kinetic studies were performed with the ligands HL^2 and HL^4 (Figure S30) and the copper(II) complexes 1–4 in aqueous solutions containing 1% DMSO (Figures S31 and 32). Additionally, the stability of the copper(II) complex 4 was also measured in phosphate-buffered saline (PBS) (pH ∼ 7.4) containing 3% DMSO over 24 h. […] Additional peaks which could be assigned to the dissociated ligand or any its fragments due to a hypothetical ligand degradation have not been registered. In addition to UV–vis data, the stability and purity of complex 4 were tested by analytical HPLC-HR ESI MS using methanol or acetonitrile with 0.1% formic acid as the eluent over 10 min. A single peak at around 1 min corresponding to [Cu^II(L^4)]^+ (found m/z = 506.9939 (Figure S23), calcd m/z for C23H17BrCuN5 507.0063) was registered in agreement with other experiments. In addition, the stability of HL^4 in 1:1 DMSO-d6/D2O at 25 °C was monitored by ^1H NMR spectroscopy. […] In addition, solution stability of the lead complex 4 was studied in ethanol-cell culture medium (1:1 v/v) by monitoring the electronic absorption spectra in the visible region within a time period of 8 h (Figure S34, Supporting Information).

For data set [2], the system named is HEK293 cells. In words: MTT assay, noncancerous HEK293. To be noted: exposure 72 h, read-out: 50% inhibitory concentration (IC50) HEK293. The data set is classed as cell-based, human. As to the method:
(§1) The in vitro antiproliferative activity of novel organic compounds HL^1–HL^4 and corresponding copper(II) complexes 1–4 was tested in the breast cancer cell line MDA-MB-231, hepatocellular carcinoma cell line LM3, and human embryonic kidney cell line HEK293 and then compared to those of the previously reported paullones HL^5–HL^7 and copper(II) complexes 5–7,[39],[44] as well as latonduines HL^8–HL^11 and copper(II) complexes 8–11.[34] […] The in vitro anticancer activity was determined by the colorimetric MTT assay with an exposure time of 72 h.
(§2) Human breast adenocarcinoma MDA-MB-231 and human embryonic kidney HEK293 cells were obtained from ATCC. Hepatocellular carcinoma LM3 cells were a kind gift of Prof. Kan Man Hui (Duke-NUS Medical School). All cells were cultured in DMEM medium containing 10% FBS in tissue culture 75 cm^2 flasks (BDBiosciences, Singapore) at 37 °C in a humidified atmosphere of 95% air and 5% CO2. All stock solutions were prepared in DMSO. The amount of actual Cu concentration in stock solutions was verified by ICP-OES.
(§3) The cytotoxicity of the compounds was determined by the colorimetric MTT assay. The cells were harvested from culture flasks by trypsinization and seeded into CELLSTAR 96-well microculture plates at the seeding density of 6000 cells per well (6 × 10^4 cells/mL). […] Optical densities were measured at 570 nm using the BioTekH1 Synergy microplate reader. […]

Data set [3] concerns MDA-MB-231 cells. In words: MTT antiproliferative assay, MDA-MB-231. The data set is classed as cell-based, human. The conditions noted are these: exposure 72 h, read-out: 50% inhibitory concentration (IC50) MDA-MB-231. As to the method: as §1, §2, §3
Data set [4] concerns LM3 cells. In words: MTT antiproliferative assay, LM3. The data set is classed as cell-based. The conditions noted are these: exposure 72 h, read-out: 50% inhibitory concentration (IC50) LM3. On the procedure:
as §1, §2, §3

Data set [5] concerns LM3 cells. Set-up: method as in PMID 34995063. To be noted: MTT assay, exposure 72 h; read-out: 50% inhibitory concentration (IC50) LM3; cited from earlier work.
Data set [6] deals with HEK293 cells. Further details: method as in doi:10.1021/acs.organomet.9b00229. The conditions noted are these: MTT assay, exposure 72 h; read-out: 50% inhibitory concentration (IC50) HEK293; cited from earlier work.
The test system of data set [7] is MDA-MB-231 cells. Further details: method as in PMID 34995063. To be noted: MTT assay, exposure 72 h; read-out: 50% inhibitory concentration (IC50) MDA-MB-231; cited from earlier work.

With `C(=N\N=C1/NCc2ccccc2-c2[nH]c3ccccc3c21)/c1ccccn1` [HL^1], in data set [1], the “stability by UV–vis absorption spectra” value is reported as “no changes in the UV–vis absorption spectra over 72 h”. Further, the IC50 in the data set with HEK293 cells [2] stood at 2000 ± 100 nM; in the data set on MDA-MB-231 cells [3], 1500 ± 100 nM; in the data set on LM3 cells [4], 1400 ± 200 nM.

For `N.N.[Cl][Pt][Cl]` [cisplatin], the figures for the IC50 in the data set with LM3 cells [5], in the data set with HEK293 cells [6] and in the data set on MDA-MB-231 cells [7] were 10000 ± 3000 nM, 3400 ± 1100 nM and 21000 ± 5000 nM, respectively.
